Experimental data: the NIST ThermoML archive (doi:10.1021/je700414c)
Numbers after ± are expanded uncertainties.

Assay: excess molar enthalpy (molar enthalpy of mixing); xn = mol fraction of the nth substance listed
Conditions: 303.15 K, 101 kPa, Liquid

CNC(C)=O [N-methylacetamide] + Cc1cc(C)cc(C)c1
Conditions | excess molar enthalpy [kcal/mol]
x1 = 0.1463 | 0.0817 ± 0.00454
x1 = 0.2448 | 0.0927 ± 0.00502
x1 = 0.3271 | 0.103 ± 0.0055
x1 = 0.4098 | 0.105 ± 0.0055
x1 = 0.4989 | 0.104 ± 0.0055
x1 = 0.5612 | 0.0978 ± 0.00526
x1 = 0.6649 | 0.0837 ± 0.00454
x1 = 0.7283 | 0.0758 ± 0.00406
x1 = 0.8071 | 0.0607 ± 0.00335
x1 = 0.884 | 0.0421 ± 0.00263

CNC(C)=O [N-methylacetamide] + Cc1ccc(C)cc1
Conditions | excess molar enthalpy [kcal/mol]
x1 = 0.1224 | 0.0667 ± 0.00359
x1 = 0.1703 | 0.0696 ± 0.00382
x1 = 0.2407 | 0.0705 ± 0.00382
x1 = 0.3474 | 0.0705 ± 0.00382
x1 = 0.4018 | 0.0679 ± 0.00382
x1 = 0.4704 | 0.0624 ± 0.00359
x1 = 0.6138 | 0.0514 ± 0.00287
x1 = 0.7126 | 0.0402 ± 0.00239
x1 = 0.7529 | 0.0366 ± 0.00215
x1 = 0.8617 | 0.0198 ± 0.00143

CNC(C)=O [N-methylacetamide] + Cc1ccccc1
Conditions | excess molar enthalpy [kcal/mol]
x1 = 0.1142 | 0.0619 ± 0.0043
x1 = 0.2405 | 0.0619 ± 0.0043
x1 = 0.2954 | 0.0571 ± 0.00406
x1 = 0.377 | 0.0528 ± 0.00382
x1 = 0.4002 | 0.0521 ± 0.00382
x1 = 0.4365 | 0.0478 ± 0.00359
x1 = 0.4708 | 0.0442 ± 0.00335
x1 = 0.5227 | 0.0428 ± 0.00335
x1 = 0.5843 | 0.039 ± 0.00311
x1 = 0.6502 | 0.0301 ± 0.00263
x1 = 0.7076 | 0.0253 ± 0.00239
x1 = 0.7798 | 0.0179 ± 0.00191
x1 = 0.9016 | 0.00741 ± 0.00143

CNC(C)=O [N-methylacetamide] + c1ccccc1
Conditions | excess molar enthalpy [kcal/mol]
x1 = 0.0848 | 0.0511 ± 0.00478
x1 = 0.1579 | 0.0562 ± 0.00502
x1 = 0.2196 | 0.0576 ± 0.00526
x1 = 0.2809 | 0.0564 ± 0.00502
x1 = 0.3924 | 0.0516 ± 0.00478
x1 = 0.4282 | 0.0464 ± 0.0043
x1 = 0.4628 | 0.0421 ± 0.00406
x1 = 0.495 | 0.0392 ± 0.00382
x1 = 0.5438 | 0.0344 ± 0.00359
x1 = 0.567 | 0.0335 ± 0.00359
x1 = 0.6331 | 0.0294 ± 0.00335
x1 = 0.766 | 0.0172 ± 0.00263
x1 = 0.8432 | 0.0124 ± 0.00215
x1 = 0.8931 | 0.00837 ± 0.00191

CNC=O [N-methylformamide] + Cc1ccc(C)cc1
Conditions | excess molar enthalpy [kcal/mol]
x1 = 0.0589 | 0.0696 ± 0.00382
x1 = 0.0809 | 0.0789 ± 0.0043
x1 = 0.1371 | 0.105 ± 0.0055
x1 = 0.648 | 0.117 ± 0.00621
x1 = 0.7042 | 0.105 ± 0.0055
x1 = 0.7619 | 0.0911 ± 0.00478
x1 = 0.8196 | 0.0722 ± 0.00406
x1 = 0.8715 | 0.0533 ± 0.00311
x1 = 0.9536 | 0.0241 ± 0.00167

CNC=O [N-methylformamide] + Cc1ccccc1
Conditions | excess molar enthalpy [kcal/mol]
x1 = 0.1531 | 0.0975 ± 0.00526
x1 = 0.1852 | 0.102 ± 0.0055
x1 = 0.2625 | 0.11 ± 0.00574
x1 = 0.3018 | 0.112 ± 0.00598
x1 = 0.3404 | 0.115 ± 0.00598
x1 = 0.3983 | 0.115 ± 0.00598
x1 = 0.4643 | 0.116 ± 0.00598
x1 = 0.4821 | 0.114 ± 0.00598
x1 = 0.5253 | 0.11 ± 0.00574
x1 = 0.5951 | 0.103 ± 0.0055
x1 = 0.6171 | 0.102 ± 0.0055
x1 = 0.645 | 0.0961 ± 0.00502
x1 = 0.7416 | 0.0765 ± 0.00406
x1 = 0.8178 | 0.0574 ± 0.00335
x1 = 0.9166 | 0.0304 ± 0.00191

CNC=O [N-methylformamide] + c1ccccc1
Conditions | excess molar enthalpy [kcal/mol]
x1 = 0.0011 | 0.00263 ± 0.000956
x1 = 0.0019 | 0.00454 ± 0.000956
x1 = 0.1401 | 0.081 ± 0.0043
x1 = 0.2247 | 0.0918 ± 0.00502
x1 = 0.2851 | 0.0968 ± 0.00526
x1 = 0.3412 | 0.0994 ± 0.00526
x1 = 0.372 | 0.101 ± 0.00526
x1 = 0.428 | 0.0997 ± 0.00526
x1 = 0.4525 | 0.0978 ± 0.00526
x1 = 0.5333 | 0.0927 ± 0.00502
x1 = 0.6012 | 0.0837 ± 0.00454
x1 = 0.6365 | 0.0796 ± 0.0043
x1 = 0.7237 | 0.065 ± 0.00359
x1 = 0.8274 | 0.0425 ± 0.00263
